From patent publication US10407381B2 (THE BOARD OF TRUSTEES OF THE UNIVERSITY OF ILLINOIS, priority 2015, dated 2019)

Legend:
5-HT2B = 5-HT2B (Homo sapiens, UniProt P41595); conditions: background, reported values; cited from earlier work
5-HT2C receptor = biological target: T1, 5-HT2C receptor (Homo sapiens, UniProt P28335); conditions: cited from earlier work; for selectivity for 5-HT2C relative to 5-HT2B: 5-HT2C versus 5-HT2B
T1 sequence (P28335 33-458): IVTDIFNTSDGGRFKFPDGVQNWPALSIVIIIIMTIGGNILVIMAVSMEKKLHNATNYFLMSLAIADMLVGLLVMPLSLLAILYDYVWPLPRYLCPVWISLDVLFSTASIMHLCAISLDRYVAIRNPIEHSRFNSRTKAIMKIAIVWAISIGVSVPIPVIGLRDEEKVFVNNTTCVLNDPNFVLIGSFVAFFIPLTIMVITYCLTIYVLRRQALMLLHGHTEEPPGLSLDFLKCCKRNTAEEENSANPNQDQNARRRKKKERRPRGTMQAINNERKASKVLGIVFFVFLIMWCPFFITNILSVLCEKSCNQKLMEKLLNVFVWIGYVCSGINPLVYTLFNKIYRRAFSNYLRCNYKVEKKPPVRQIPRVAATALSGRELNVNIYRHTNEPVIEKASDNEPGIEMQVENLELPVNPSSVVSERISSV

5-HT2A [1] = biological target: T2, 5-HT2A (Homo sapiens, UniProt P28223); conditions: background, cited from earlier work
Target sequence in this assay (P28223 whole entry, species assumed): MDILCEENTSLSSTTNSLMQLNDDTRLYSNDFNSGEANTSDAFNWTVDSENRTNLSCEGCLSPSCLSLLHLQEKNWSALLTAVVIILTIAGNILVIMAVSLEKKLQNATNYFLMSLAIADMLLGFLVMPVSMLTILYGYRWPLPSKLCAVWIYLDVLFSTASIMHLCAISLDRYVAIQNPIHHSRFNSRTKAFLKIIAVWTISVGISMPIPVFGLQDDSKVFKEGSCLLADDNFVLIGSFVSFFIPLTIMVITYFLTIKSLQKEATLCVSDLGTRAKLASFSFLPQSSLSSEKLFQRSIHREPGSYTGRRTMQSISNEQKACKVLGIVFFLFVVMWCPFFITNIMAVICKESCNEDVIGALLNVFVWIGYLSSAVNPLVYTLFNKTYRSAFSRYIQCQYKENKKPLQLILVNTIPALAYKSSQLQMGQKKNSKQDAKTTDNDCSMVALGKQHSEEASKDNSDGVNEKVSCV

[2] = several animal models; cited from earlier work
[3] = 10-60 mg/kg; cited from earlier work
[4] = clinical trials, compared to the placebo group; cited from earlier work
5-HT2A [5] = biological target: T2, 5-HT2A; test: Calcium flux (FLIPR) assay, human 5-HT2A stably expressed in HEK-293 (Flp-In-293) cells; conditions: read-out: 5-HT2A Emax Std. Error
Target sequence in this assay (P28223 whole entry): as the sequence (P28223 whole entry, species assumed) above

human 5-HT2C-INI = biological target: T3, human 5-HT2C-INI (Homo sapiens, UniProt P28335); test: Calcium flux (FLIPR) assay, human 5-HT2C-INI stably expressed in HEK-293 (Flp-In-293) cells
T3 sequence (P28335 33-458): T1 sequence (P28335 33-458)

Sequence of 5-HT2B (P41595 whole entry, species assumed): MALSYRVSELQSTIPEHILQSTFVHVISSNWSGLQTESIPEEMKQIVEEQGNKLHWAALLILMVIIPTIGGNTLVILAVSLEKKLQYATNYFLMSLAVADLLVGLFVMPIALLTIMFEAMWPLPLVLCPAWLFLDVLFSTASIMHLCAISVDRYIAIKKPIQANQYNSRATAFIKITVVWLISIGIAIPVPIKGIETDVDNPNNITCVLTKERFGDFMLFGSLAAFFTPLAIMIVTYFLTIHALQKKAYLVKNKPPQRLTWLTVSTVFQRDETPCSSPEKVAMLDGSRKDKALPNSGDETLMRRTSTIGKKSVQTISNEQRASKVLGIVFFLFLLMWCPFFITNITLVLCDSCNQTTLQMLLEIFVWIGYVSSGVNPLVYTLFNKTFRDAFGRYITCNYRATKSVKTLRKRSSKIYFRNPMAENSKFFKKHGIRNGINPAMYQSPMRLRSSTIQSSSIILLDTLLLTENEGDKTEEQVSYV

**Q.** With `Clc1cccc(COc2cncc(N3CCNCC3)n2)c1` [CP-809,101] as the compound, how does the “Emax at 5-HT2B” value (5-HT2B) read?
**A.** 57%

**Q.** What about the “selectivity for 5-HT2C relative to 5-HT2B” value (5-HT2C receptor) of the same compound?
**A.** about 600 fold

**Q.** And the “Emax at 5-HT2C” value (5-HT2C receptor; background, reported values)?
**A.** 93%

**Q.** What does the source list for `c1cc2c3c(c1)[C@H]1CCC[C@H]1N3CCNC2` [WAY-163909]?
**A.** Emax at 5-HT2B (5-HT2B): 40%; agonist activity at 5-HT2A (5-HT2A [1]; reported): no agonist activity; preclinical antipsychotic-like activity [2]: good preclinical antipsychotic-like activity

**Q.** For `Cc1cccc(C2CC2CN)c1` (stereo not shown), which EC50 (5-HT2B) is on record?
**A.** 65 nM

**Q.** And the EC50 (5-HT2A [1]; reported values)?
**A.** 585 nM

**Q.** What about the antidepressant-like effects [3] of the same compound?
**A.** moderate antidepressant-like effects

**Q.** And the “selectivity over 5-HT(2A)” value (5-HT2C receptor; 5-HT2C versus 5-HT2A)?
**A.** 120 fold

**Q.** What about the “selectivity for 5-HT2C relative to 5-HT2B” value (5-HT2C receptor) of the same compound?
**A.** 14 fold

**Q.** And the EC50 (5-HT2C receptor; background, reported values)?
**A.** 4.8 nM

**Q.** Which “incidence of cardiac valve disorders” value [4] does the source give for `C[C@H]1CNCCc2ccc(Cl)cc21` [lorcaserin, reference compound] here?
**A.** higher incidence of cardiac valve disorders

**Q.** What about the Emax (5-HT2A [5]) of the same compound?
**A.** 68%

**Q.** And the “Emax, % 5-HT 5-HT2C” value (human 5-HT2C-INI; human 5-HT2C-INI in HEK-293 cells, FLIPR, normalized to 5-HT)?
**A.** (99%) % 5-HT

**Q.** And the Emax (human 5-HT2C-INI; read-out: 5-HT2C Emax Std. Error)?
**A.** 99%
